Results from US20130216590A1, “TOPICAL ANTIVIRAL FORMULATIONS FOR PREVENTION OF TRANSMISSION OF HSV-2” (priority 2010, published 2013).
In brackets after ≈: the same amount, converted by molar mass. Where two headings read alike, the source gives them in different places.

Tests used:
Assay type in all cases: cell-based
HSV-2 = assay: Herpes virus infection of primary monocyte/macrophage (M/M) cell cultures
Procedure: Human peripheral blood mononuclear cells (PBMCs) were obtained from the blood of healthy seronegative donors by Ficoll-Hypaque density gradient centrifugation. […] Monocyte/macrophage (M/M) cells were separated by adherence onto plastic. […] African green monkey fibroblastoid kidney (Vero) cells highly sensitive to the cytopathic effect of HSV-2 were grown in RPMI medium supplemented with 10% heat inactivated FCS and were used in infectious virus titration assays.
Macrophage cultures were then infected with HSV-2 (100 CCID50) in the presence of the test compounds. After 2 hrs virus adsorption, the cultures were extensively washed to remove any residual virus particles. Fresh culture medium and compounds, at the indicated concentrations, were then added to the cultures. […] Appropriate positive (infected but not treated M/M) and mock-infected negative (uninfected and untreated M/M) controls were run for each experiment as well. All assays were performed in triplicate. […] Therefore, the potential inhibitory effect of the compounds on the replication of HSV-2 was evaluated 6 days after infection. The amount of infectious virus in the supernatants was determined by a classical limited dilution assay on Vero cell cultures. The titers of produced virus were calculated according to the Reed and Muench method and expressed as 50% tissue culture infective dose per ml (TCID50/ml).
The inhibition capacity was expressed in % and calculated considering as value 100 being the virus production in virus-infected untreated cultures.

[1] = tested on: HSV-2 wt clinical isolates; assay: HSV CPE reduction assay, clinical isolates in HEL fibroblast cell cultures; conditions: Human alphaherpesvirus 2, Fibroblast
HSV-2 (G) = assay: Organotypic epithelial raft cultures infected with HSV-2
Procedure: (§1) For the preparation of epidermal equivalents, a collagen matrix solution was made with collagen mixed on ice with 10-fold concentrated HAM's F12 media, 10-fold reconstitution buffer and Swiss 3T3 J2 fibroblasts. One milliliter of the collagen matrix solution was poured into the wells of 24-well microtiter plates. After gel equilibration with 1 ml of growth medium overnight at 37° C., 2.5×10^5 PHK cells were seeded on the top of the gels and maintained submerged for 24-48 hours. The collagen rafts were raised and placed onto stainless-steel grids at the interface between air and liquid culture medium. The growth medium was a mixture of ⅓ HAM F12 and ⅔ Dulbecco's modified Eagle's medium, with the same supplements as used for the Keratinocyte-SFM. Epithelial cells were allowed to stratify, the medium being replaced every 2-3 days. For the evaluation of the antiviral effects of the compounds in the raft system, two series of rafts were run in parallel, one for histological examination and the other one for quantification of viral production by a plaque reduction assay. Rafts were infected with 5,000 PFU of HSV-1 (KOS) or […] strains after 10 days post-lifting and then the medium was replaced by medium containing different dilutions of the compounds. The growth medium containing the different concentrations of the compounds was changed two days later and 3 days later (after 15 days of differentiation), one series of rafts was fixed in 10% buffered formalin, embedded in paraffin and stained with hematoxylin and eosin for histological evaluation. Another series of rafts was used to quantify virus production. For that purpose, each raft was frozen in 3 ml phosphate buffer saline (PBS) and thawed to release the virus from the infected epithelium. Supernatants were clarified by centrifugation at 1,800 rpm and titrated by a plaque assay in HEL cell cultures. Virus production in each raft was then calculated. Two rafts were used for each drug concentration to determine the effects of the compounds on virus yield.

HIV-1 (NL4.3) = assay: Co-infection of TZM-bl cells with HIV-1 and HSV-2: LTR-driven luciferase; conditions: presence or absence of an ongoing HSV-2 infection; data not shown
Procedure: The TZM-bl cell line is derived from HeLa cells and expresses high levels of CD4, CCR5 and CXCR4. In addition, this cell line is stably transduced with a LTR-driven firefly luciferase and E. coli-galactosidase gene (15). In a 96-well tray, 10,000 TZM-bl cells were seeded on day 1. […] Next, 100 μl of a virus suspension containing either HIV-1 (NL4.3), HSV-2 (G) or both viruses together was administered. Two to three days post infection, HIV-1 infection was monitored based on the determination of luciferase activity. For this means, 100 μl of culture supernatant was removed and 100 μl of Bright-Glo Luciferase Assay Substrate (Promega, Madison, USA) was added. The luminescence signal was measured using the Safire 2 microtiter plate reader (Tecan, Männedorf, Switzerland). A control condition containing only mock-infected cells was also included to measure the background luminescence levels. Three days post infection, HSV-2-induced cytopathicity was recorded microscopically based on giant cell formation.

[2] = tested on: HSV-1 wt clinical isolates; assay: HSV CPE reduction assay, clinical isolates in HEL fibroblast cell cultures; conditions: Human alphaherpesvirus 1, Fibroblast
[3] = tested on: organotypic raft cultures of keratinocytes; assay: Toxic effects in organotypic epithelial raft cultures; conditions: highest concentration, 200 μg/ml
Procedure: as §1

HSV-1 (KOS) = assay: Organotypic epithelial raft cultures infected with HSV-1
Procedure: as §1

HSV-2 (strain G) = assay: Human ex vivo cervico-vaginal tissue, HSV-2 DNA release; conditions: 166 μg/ml
Procedure: (§2) For each experimental condition 16 tissue blocks were immersed in 500 μl of a HSV-2 (strain G) suspension for 2 hours at 37° C., washed three times with PBS and then placed on the gelfoam rafts. Tenofovir was added during the infection and replenished at each culture medium change. Herpes simplex viral replication was evaluated by the release of viral DNA into the culture medium as measured by quantitative real-time PCR (17). HIV-1 replication was evaluated by the release of p24 capsid antigen using a bead-based assay (18).

HSV-2G = assay: Human ex vivo tonsillar tissue coinfected with HSV-2G and HIV-1: HSV-2G DNA release; conditions: 66 μg/ml, coinfected with HIV-1
Procedure: as §2

In the case of `C[C@H](Cn1cnc2c(N)ncnc21)OCP(=O)(O)O` [tenofovir, (R)-9-(2-phosphonylmethoxypropyl)adenine], the CPE (HSV-2; 1 μg/ml or 0.2 μg/ml, day 6) is reported as 70-80%, the “virus titer in supernatants” value (HSV-2; 1 μg/ml or 0.2 μg/ml, day 6) is reported as 2.5×10^5 TCID50/ml and the “visible CPE” value (HSV-2; 5 μg/ml, day 6) is reported as 30%. The “visible CPE” value (HSV-2; 20 μg/ml, day 6) was roughly 5%, the “virus titers in the culture supernatants versus untreated controls” value (HSV-2; 20 and 5 μg/ml, day 6) was “more than one log lower” and the virus replication (HSV-2; 500 and 100 μg/ml, day 6 post virus infection) was “completely suppressed virus replication”. The EC50 ([1]; read-out: mean EC50) was no less than 157 µg/mL, the EC50 ([1]; read-out: range of EC50) was no less than 125 µg/mL and the “protection of the epithelium against HSV-2-induced cytopathicity (morphological analysis)” value (“protection … (morphological analysis)” below) (HSV-2 (G); 2 μg/ml) was “inactive”. For the same molecule, the “protection … (morphological analysis)” value (HSV-2 (G); 20 μg/ml and 5 μg/ml) was “partially protective”, the “protection … (morphological analysis)” value (HSV-2 (G); 200 μg/ml and 50 μg/ml) was “protected the entire epithelium” and the “reduction in virus production” value (HSV-2 (G); HSV-2, 20 μg/ml) was 0.9 log. For the same molecule, the “reduction in virus yield” value (HSV-2 (G); HSV-2, 50 μg/ml) was 1.75 logs, the “log reduction in virus production (PFU) per raft” value (HSV-2 (G); HSV-2, 200 μg/ml) was 5.4 log and the “reduction of virus replication in the rafts” value (HSV-2 (G); lower concentrations (below 20 μg/ml)) was “unable to reduce virus replication”. For the same molecule, the “suppression of HIV-1” value (HIV-1 (NL4.3)) was “equally suppressed”, the EC50 ([2]; read-out: mean EC50) was 130 µg/mL (≈ 453 µM) and the EC50 ([2]; read-out: range of EC50) was 114 to 160 µg/mL (≈ 397 to 557 µM). The “toxic effects (increase in number of dead cells or alteration of differentiation)” value [3] was “No toxic effects”, the “protection of the epithelium from HSV-1-induced cytopathic effect” value (HSV-1 (KOS); 20 μg/ml) was “full destruction” and the “protection of the epithelium from HSV-1-induced cytopathic effect” value (HSV-1 (KOS); 50 μg/ml) was “partial protection”. For the same molecule, the “reduction in virus yield” value (HSV-1 (KOS); HSV-1, 50 μg/ml) was 0.81 logs, the “log reduction in virus production (PFU) per raft” value (HSV-1 (KOS); HSV-1, 200 μg/ml) was 2.6 log and the “concentration giving complete protection from virus-induced cytopathic effect” value (HSV-1 (KOS); reference HSV-1 laboratory strain) was 200 µg/mL. The “viral production (cumulative viral DNA release)” value (HSV-2 (strain G); 12 days of culture, IQR 4.8-5.7, untreated 6.6) was 5.5 log10 copies/mL, the “reduction of viral replication (averaged over experiments)” value (HSV-2 (strain G); n=5) was 78±9% and the “HSV-2G DNA release into culture medium” value (HSV-2G; IQR 4.3-5.7, untreated 7.3) was 5 log10 copies/ml. The “suppression of HSV-2G replication” value (HSV-2G; n=6) was 96±1%.
